Laboratory results reported in PubChem BioAssay (NCI).
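Test compounds were applied to cells in 96-well plates for 48 hours at 5 doses. The concentration for full growth arrest is given as TGI.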

Tests used:
Test in all cases: NCI anticancer screen, dose series, 48 h
SNB-19 CNS = tested on: SNB-19 CNS
NCI-H23 lung = tested on: NCI-H23 lung
UO-31 renal = tested on: UO-31 renal
K-562 leukemia = tested on: K-562 leukemia
MOLT-4 leukemia = tested on: MOLT-4 leukemia
PC-3 prostate = tested on: PC-3 prostate
MCF7 breast = tested on: MCF7 breast
OVCAR-5 ovarian = tested on: OVCAR-5 ovarian
U251 CNS = tested on: U251 CNS
SNB-75 CNS = tested on: SNB-75 CNS
MDA-MB-435 = tested on: MDA-MB-435
NCI-H460 lung = tested on: NCI-H460 lung
A498 renal = tested on: A498 renal

Structure (SMILES) | TGI (SNB-19 CNS) | TGI (NCI-H23 lung) | TGI (UO-31 renal) | TGI (K-562 leukemia) | TGI (MOLT-4 leukemia) | TGI (PC-3 prostate) | TGI (MCF7 breast) | TGI (OVCAR-5 ovarian) | TGI (U251 CNS) | TGI (SNB-75 CNS) | TGI (MDA-MB-435) | TGI (NCI-H460 lung) | TGI (A498 renal)
O=C(c1cccc2cc(O)ccc12)c1cn(CCN2CCOCC2)c2ccccc12 | > 100 µM | > 100 µM | 71.4 µM | > 100 µM | 62.9 µM | 35.5 µM | 66.8 µM | 73.5 µM | – | – | – | – | –
CC1(C)/C(=N\Nc2ccc([N+](=O)[O-])cc2[N+](=O)[O-])C2CCC1C2 (stereo unspecified) | > 100 µM | > 100 µM | > 100 µM | > 100 µM | > 100 µM | > 100 µM | > 100 µM | > 100 µM | > 100 µM | 65.8 µM | > 100 µM | > 100 µM | –
C=CCN(c1cc(OC)c2c(c1[N+](=O)[O-])C(C)(SC)C(=O)N2)S(C)(=O)=O (stereo unspecified) | > 100 µM | > 100 µM | > 100 µM | > 100 µM | – | > 100 µM | > 100 µM | – | > 100 µM | > 100 µM | > 100 µM | > 100 µM | > 100 µM
CS(=O)(=O)CCC(N)P(=O)(O)O (stereo unspecified) | > 100 µM | > 100 µM | > 100 µM | > 100 µM | > 100 µM | > 100 µM | > 100 µM | > 100 µM | > 100 µM | > 100 µM | > 100 µM | > 100 µM | –
COc1cc2c3c(c1OC)C(=O)C(=O)C1=C3N(CCC1)CC2 | > 100 µM | 86.3 µM | > 100 µM | 71.8 µM | 56.3 µM | > 100 µM | 37.2 µM | > 100 µM | > 100 µM | – | 53.8 µM | 37.5 µM | 92.6 µM
CCNC1=C(NC(=O)CCl)C(=O)c2ccccc2C1=O | 54.5 µM | 36 µM | – | > 100 µM | 55.5 µM | 30.3 µM | 47.4 µM | 34.2 µM | 35.9 µM | > 10 µM | 36.4 µM | 57.4 µM | –
S=C(S)N1CCN(c2ccccc2)CC1 | > 100 µM | – | – | > 100 µM | – | > 100 µM | > 100 µM | > 100 µM | > 100 µM | > 100 µM | > 100 µM | – | > 100 µM
Cc1ccc2c(=O)c(C(=O)NNC(=S)NC3CCCCC3)c[nH]c2n1 | > 100 µM | > 100 µM | > 100 µM | > 100 µM | > 100 µM | > 100 µM | > 100 µM | > 100 µM | > 100 µM | – | 89 µM | > 100 µM | > 100 µM
C[C@]12CC/C(=N\O)C=C1CC[C@@H]1[C@@H]2CC[C@]2(C)C(=N/O)/C(=C/c3ccncc3)C[C@@H]12 | > 100 µM | > 100 µM | 24.3 µM | > 100 µM | > 100 µM | 62.6 µM | 67.9 µM | > 100 µM | > 100 µM | > 100 µM | 95.8 µM | 85 µM | –
CO/N=C(\C(=O)[N-][n+]1cnn(CC(=O)O)c1)c1csc(N)n1 | – | > 10 µM | – | > 10 µM | > 10 µM | – | > 10 µM | – | – | > 10 µM | – | > 10 µM | –
C[C@H](CO)C1=CC(C#C[Si](C)(C)C)N(C(=O)Oc2ccccc2)c2ccccc21 (stereo partly specified) | 29.8 µM | 15.1 µM | 21.4 µM | > 100 µM | 44 µM | 24 µM | – | 30.5 µM | 28 µM | 23 µM | 7.25 µM | 28.6 µM | –
COC1C(OC(C)=O)CC(=O)OC(C)C/C=C/C=C\C(O)C(C)CC(CC=O)C1OC1OC(C)C(OC2CC(C)(O)C(OC(=O)CC(C)C)C(C)O2)C(N(C)C)C1O (stereo unspecified) | > 100 µM | > 100 µM | > 100 µM | > 100 µM | – | > 100 µM | > 100 µM | > 100 µM | > 100 µM | > 100 µM | > 100 µM | > 100 µM | > 100 µM
O=C(Nc1nccs1)NS(=O)(=O)n1cnc2ccccc21 | > 100 µM | > 100 µM | > 100 µM | – | > 100 µM | > 100 µM | > 100 µM | > 100 µM | > 100 µM | > 100 µM | > 100 µM | > 100 µM | > 100 µM
CC1=CC(=O)/C(=C/N2C(=O)CNC2=S)C(=O)O1 | > 100 µM | > 100 µM | > 100 µM | – | > 100 µM | > 100 µM | > 100 µM | > 100 µM | > 100 µM | > 100 µM | > 100 µM | > 100 µM | –
CCOc1ncnc2ccc(Cl)c(I)c12 | > 100 µM | > 100 µM | 75.5 µM | > 100 µM | – | – | – | > 100 µM | > 100 µM | – | – | > 100 µM | > 100 µM
Cc1cc(=O)n2nc(CSc3n[nH]c(=S)s3)sc2n1 | > 100 µM | > 100 µM | > 100 µM | > 100 µM | > 100 µM | > 100 µM | > 100 µM | > 100 µM | > 100 µM | > 100 µM | > 100 µM | > 100 µM | –
Nc1nc(Cc2ccccc2)nc(Cc2ccccc2)c1-c1ccccc1 | > 100 µM | 45.2 µM | > 100 µM | > 100 µM | 59.7 µM | 77.7 µM | – | > 100 µM | 37.1 µM | – | 59.3 µM | > 100 µM | 46.7 µM
NS(=O)(=O)c1ccc(N2C(=O)C(=O)N(c3ccccc3)C2=S)cc1 | > 100 µM | > 100 µM | > 100 µM | > 100 µM | > 100 µM | > 100 µM | – | > 100 µM | > 100 µM | > 100 µM | > 100 µM | > 100 µM | > 100 µM
O=C1c2cc([N+](=O)[O-])sc2C(=O)c2cc([N+](=O)[O-])sc21 | 8.9 µM | 15.5 µM | 7.68 µM | – | > 22.7 µM | 15.9 µM | 9.92 µM | 15.5 µM | 3.38 µM | 26.3 µM | 4.73 µM | 43.8 µM | 32.7 µM
